Measured values published in publication PMC11152041, “Tricarbonyl rhenium(I) complexes with 8-hydroxyquinolines: structural, chemical, antibacterial, and anticancer characteristics” (RSC Advances, 2024).
Read-outs that look alike come from different tables or passages of the source.

What was measured:
P. aeruginosa ATCC27853 = assay: Broth microdilution MIC/MBC (ISO 20776-1); format: cell-based, Pseudomonas aeruginosa; conditions: for MBC: P. aeruginosa ATCC27853, >99.99% reduction of growth; for MIC: P. aeruginosa ATCC27853, MH II broth, 35 °C, 24 h
Method: (§1) Bacterial strains and cell lines were obtained from the American Type Culture Collection (ATCC).[59] […] Antimicrobial activity was tested in Müeller Hinton (MH) II broth (Becton Dickinson). For anticancer activity assay, the following reagents from Merk were used: 3-(4,5-dimethylthiazol-2-yl)-2,5-diphenyltetrazolium bromide (MTT), sodium dodecyl sulfate (SDS) and HCl. The solubilized formazan product was spectrophotometrically quantified in a Power Wave XS (Bio Tek, Winooski, VT, USA) microplate reader. The HL-60 and PC-3 cells were grown in RPMI-1640 medium with stable glutamine (Biowest) supplemented with 10% (v/v) of heat-inactivated fetal bovine serum (FBS, Biowest) and 1% (v/v) of antibiotic–antimycotic solution (Biowest). The SKOV-3 cells were grown in McCoy's 5A medium with L-glutamine (Biowest) supplemented with 10% (v/v) heat-inactivated FBS, and 1% (v/v) antibiotic–antimycotic solution. The MCF-7 cells were grown in Eagle's MEM (Minimal Essential Medium) medium with stable glutamine (Biowest), supplemented with 10% (v/v) heat-inactivated FBS 1% (v/v) MEM non-essential amino acids (Biowest), 1% (v/v) antibiotic–antimycotic solution, and 1 mM sodium pyruvate (Merck). The MCF-10A cells were grown in Ham's F-12K (Kaighn's) Medium with stable glutamine (Gibco) supplemented with 5% (v/v) heat-inactivated FBS, 1% (v/v) MEM non-essential amino acids, 1% (v/v) antibiotic–antimycotic solution, 5 μg mL^−1 insulin, 0.04 μg mL^−1 hydrocortisone (Merck), and 15 ng mL^−1 human Epidermal Growth Factor (hEGF, PeproTech).
(§2) The in vitro antibacterial activity was determined according to ISO 20776-1.[88] Among the tested microorganisms were Gram-negative rods, E. coli ATCC25922 and P. aeruginosa ATCC27853, and Gram-positive cocci, S. aureus ATCC29213 and E. faecalis ATCC29212. The selected bacterial species represented the most common etiologic agents of human infections and are used for quality control of antimicrobial susceptibility testing.[89] The test procedure included the determination of MICs and MBCs of complexes and their free ligands. MIC and MBC determinations of ciprofloxacin, as the reference antibiotic, were also performed. All compounds were dissolved in DMSO to reach the maximum 512 mg L^−1 concentration. […] The assay consisted of preparing 2-fold dilutions of the substances in a liquid growth medium MH II and inoculating them with a standardized suspension of microorganisms at a McFarland density of 0.5 (≈10^8 CFU mL^−1). The culture plates were incubated at 35 °C for 24 h. The lowest concentration of the compound inhibiting visible bacterial growth was specified as MIC, and the concentration that reduced bacterial growth by >99.99% after counting live bacteria on the plates compared to the positive control was defined as MBC.

MCF-10A cells = assay: MTT cytotoxicity assay; conditions: for IC50: read-out: IC50 ± SD, MCF-10A (non-cancerous), MTT, * precipitation of the complex
Method: (§3) The cytotoxicities for studied compounds were evaluated against leukemia cells (HL-60), as well as ovarian (SKOV-3), prostate (PC-3), and breast (MCF-7) cancer cell lines. The potential selectivity of these compounds towards cancer cells was assessed by determination of their cytotoxicities towards breast non-cancerous cells (MCF-10A). For comparison, cisplatin was added to the cytotoxicity assays.
as §1
(§4) The cells were cultured in 96-well plates and incubated with the tested compound for 24 h and 48 h. All experiments were performed in exponentially growing cultures. The 0.03 M solutions of the compounds in DMSO were appropriately diluted using culture media. The maximal final concentration of DMSO in each well was 0.1%. The cytotoxicity of the compounds was measured by determining cell viability with a colorimetric test based on 3-(4,5-dimethylthiazol-2-yl)-2,5-diphenyltetrazolium bromide (MTT). MTT stock solution was added to each well to a final concentration of 0.5 mg mL^−1 and incubated for 4 h at 37 °C; following formazan crystals were dissolved by the addition of sodium dodecyl sulfate (SDS) solution (10% SDS in 0.001 M HCl). MTT and SDS were added directly to the cell culture. The compound's IC50 values (concentration required to reduce the viability of cells by 50% compared with the control cells) were calculated from the data obtained with the MTT assay.

S. aureus ATCC29213 = assay: Broth microdilution MIC/MBC (ISO 20776-1); format: cell-based, Staphylococcus aureus; conditions: for MBC: S. aureus ATCC29213, >99.99% reduction of growth; for MIC: S. aureus ATCC29213, MH II broth, 35 °C, 24 h
Method: as §1, §2

E. faecalis ATCC29212 = assay: Broth microdilution MIC/MBC (ISO 20776-1); format: cell-based, Enterococcus faecalis; conditions: for MBC: E. faecalis ATCC29212, >99.99% reduction of growth; for MIC: E. faecalis ATCC29212, MH II broth, 35 °C, 24 h
Method: as §1, §2

E. coli ATCC25922 = assay: Broth microdilution MIC/MBC (ISO 20776-1); format: cell-based, Escherichia coli; conditions: for MBC: E. coli ATCC25922, >99.99% reduction of growth; for MIC: E. coli ATCC25922, MH II broth, 35 °C, 24 h
Method: as §1, §2

MCF-7 cells = assay: MTT cytotoxicity assay; format: cell-based, human; conditions: MTT, read-out: IC50 ± SD
Method: as §3, §1, §4

PC-3 cells = assay: MTT cytotoxicity assay; format: cell-based, human; conditions: MTT, read-out: IC50 ± SD
Method: as §3, §1, §4

HL-60 cells = assay: MTT cytotoxicity assay; format: cell-based, human; conditions: MTT, read-out: IC50 ± SD
Method: as §3, §1, §4

SKOV-3 cells = assay: MTT cytotoxicity assay; format: cell-based, human; conditions: MTT, read-out: IC50 ± SD
Method: as §3, §1, §4

Row | Compound | MBC (P. aeruginosa ATCC27853) | MIC (P. aeruginosa ATCC27853) | IC50 (MCF-10A cells; 24 h) | IC50 (MCF-10A cells; 48 h) | MBC (S. aureus ATCC29213) | MIC (S. aureus ATCC29213) | MBC (E. faecalis ATCC29212) | MIC (E. faecalis ATCC29212) | MBC (E. coli ATCC25922) | MIC (E. coli ATCC25922) | IC50 (MCF-7 cells; MCF-7, 24 h) | IC50 (MCF-7 cells; MCF-7, 48 h) | IC50 (PC-3 cells; PC-3, 24 h) | IC50 (PC-3 cells; PC-3, 48 h) | IC50 (HL-60 cells; HL-60, 24 h) | IC50 (HL-60 cells; HL-60, 48 h) | IC50 (SKOV-3 cells; SKOV-3, 24 h) | IC50 (SKOV-3 cells; SKOV-3, 48 h) | solubility in the cytotoxicity assay (MCF-10A cells; MCF-10A cell line culture medium)
1 | [C-]#[O+].[C-]#[O+].[C-]#[O+].[Re][O]c1cccc2cccnc12.c1ccc(-c2ccn[nH]2)cc1 [complex 4, [Re(CO)3(Q)HPhpz]·0.5CH3CN] | >512/>512 mg L^−1 | >512/>512 mg L^−1 | 50 ± 5 µM | 36 ± 4 µM | > 512 mg/L | 256 mg/L | > 512 µg/mL | 32 µg/mL | >512/>512 mg L^−1 | >512/>512 mg L^−1 | 73 ± 3 µM | 50 ± 3 µM | 42 ± 6 µM | 27 ± 3 µM | 9 ± 1 µM | 9 ± 1 µM | > 100 µM | 81 ± 9 µM | 
2 | Cc1ccc2cccc([O][Re])c2n1.Cc1ncc[nH]1.[C-]#[O+].[C-]#[O+].[C-]#[O+] [complex 6, [Re(CO)3(MeQ)MeHim]] | >512/>512 mg L^−1 | >512/>512 mg L^−1 | 66 ± 1 µM | 35 ± 1 µM | 512 mg/L | 64 mg/L | 256 µg/mL | 64 µg/mL | >512/>512 mg L^−1 | >512/>512 mg L^−1 | 44 ± 1 µM | 35 ± 6 µM | 54 ± 7 µM | 22 ± 5 µM | 14 ± 1 µM | 9 ± 1 µM | 32 ± 7 µM | 30 ± 9 µM | 
3 | Cc1cc(C)[nH]n1.Cc1ccc2cccc([O][Re])c2n1.[C-]#[O+].[C-]#[O+].[C-]#[O+] [complex 7, [Re(CO)3(MeQ)Hdmpz]] | >512/>512 mg L^−1 | >512/>512 mg L^−1 | > 25 µM | > 25 µM | >512/>512 mg L^−1 | >512/>512 mg L^−1 | > 512 µg/mL | 128 µg/mL | >512/>512 mg L^−1 | >512/>512 mg L^−1 | 27 ± 8 µM | 19 ± 4 µM | 16 ± 2 µM | 18 ± 4 µM | 13 ± 1 µM | 12 ± 1 µM | 29 ± 5 µM | 26 ± 5 µM | precipitated at higher concentrations
